# In US8211929B2, “Pyrimidine derivatives as kinase modulators and method of use” (Exelixis, Inc., priority 2004, dated 2012):
# Like-named read-outs stand apart in the source and are kept apart here.
# What was measured:
# [1] = target: T1, (Homo sapiens, UniProt P08069); assay: IGF1R kinase assay (LCCA), IGF 0P; format: biochemical
# T1 construct: human IGF1R kinase domain residues M954-C1367; made in house; host or cells: baculovirus expression (insect cells)
# How it was run: (§1)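 Baculovirus-expressed human IGF1R kinase domain (M954-C1367), 4 nM, with 3 μM ATP and 4 μM poly EY in Tris-HCl pH 7.5 buffer containing MgCl2 and MnCl2, 2 h at ambient temperature. Remaining ATP read by luciferase chemiluminescence; IC50 from 10-point dose-response fitted to a four-parameter equation.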
# IGF 3P = target: T2, IGF 3P (Homo sapiens, UniProt P08069); assay: IGF1R kinase assay (LCCA), IGF 3P; format: biochemical
# T2 construct: human IGF1R kinase domain residues M954-C1367; made in house; host or cells: baculovirus expression (insect cells)
# How it was run: as §1
# T1 sequence (P08069 954-1367): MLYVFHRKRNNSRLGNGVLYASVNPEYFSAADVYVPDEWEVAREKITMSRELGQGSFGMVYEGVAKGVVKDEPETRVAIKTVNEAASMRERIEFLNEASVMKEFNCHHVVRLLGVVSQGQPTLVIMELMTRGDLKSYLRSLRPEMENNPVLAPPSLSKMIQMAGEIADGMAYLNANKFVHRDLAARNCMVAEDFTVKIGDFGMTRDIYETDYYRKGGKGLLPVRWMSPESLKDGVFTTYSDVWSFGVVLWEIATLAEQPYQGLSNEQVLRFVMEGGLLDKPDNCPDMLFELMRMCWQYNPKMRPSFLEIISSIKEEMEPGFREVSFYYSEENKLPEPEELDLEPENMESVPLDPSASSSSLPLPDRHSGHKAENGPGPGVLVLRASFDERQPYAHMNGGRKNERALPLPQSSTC
# T2 sequence (P08069 954-1367): as above
SMILES,IC50 ([1]; IGF1R kinase LCCA assay) [nM],IC50 (IGF 3P; IGF1R kinase LCCA assay) [nM],IC50 [1] [nM],IC50 (IGF 3P) [nM],also measured
COC(=O)C1CCc2cc(Nc3nc(C)cc(Nc4cc(C5CC5)n[nH]4)n3)ccc2N1 (stereo not shown) [Example 537],500 to 5000,500 to 5000,,,
Cc1cc(Nc2cc(C3CC3)[nH]n2)nc(NCc2cc(-c3cccc(Cl)c3)no2)n1 [Example 538],50 to 500,50 to 500,,,
CNCCc1ccc(Nc2nc(C)cc(Nc3cc(C4CC4)n[nH]3)n2)cc1 [Example 540],500 to 5000,500 to 5000,,,
CCN(CC)CCNC(=O)CCc1ccc(Nc2ncc(Br)c(Nc3ccccc3)n2)cc1 [Example 541],50 to 500,< 50,,,
Cc1cc(Nc2cc(C3CC3)[nH]n2)nc(NCc2cc(-c3cccc(Br)c3)no2)n1 [Example 542],50 to 500,50 to 500,,,
CC(C)c1cc(CNc2nc(Cl)cc(Nc3cc(C(C)C)[nH]n3)n2)on1 [Example 544],500 to 5000,< 50,,,
Cc1cc(Nc2cc(C3CC3)n[nH]2)nc(Nc2ccc3c(c2)CNCC3)n1 [Example 545],500 to 5000,50 to 500,,,
Cc1cc(Nc2cc(C3CC3)n[nH]2)nc(Nc2ccc3c(c2)CC(N)C3)n1 (stereo not shown) [Example 546],500 to 5000,50 to 500,,,
Cc1cc(Nc2cc(C3CC3)n[nH]2)nc(Nc2ccc(CCN)cc2)n1 [Example 550],500 to 5000,50 to 500,,,
Cc1cc(Nc2cc(C3CC3)n[nH]2)nc(Nc2ccc(CCN3CCCC3)cc2)n1 [Example 551],500 to 5000,50 to 500,,,
Cc1cc(Nc2cc(C3CC3)n[nH]2)nc(Nc2ccc(C3CCNCC3)cc2)n1 [Example 553],500 to 5000,500 to 5000,,,
Cc1cc(Nc2cc(C3CC3)n[nH]2)nc(Nc2ccc(CCN3CCCCC3)cc2)n1 [Example 554],500 to 5000,500 to 5000,,,
Cc1cc(Nc2cc(C3CC3)[nH]n2)nc(NCc2cc(C(=O)N3CCN(C)CC3)no2)n1 [Example 555],500 to 5000,500 to 5000,,,
Cc1cc(Nc2cc(C3CC3)n[nH]2)nc(Nc2ccc(CCN3CCOCC3)cc2)n1 [Example 556],500 to 5000,500 to 5000,,,
CC(C)c1cc(CNc2nc(Nc3cc(C4CC4)[nH]n3)cc(N3CCN[C@H](C)C3)n2)on1 [Example 557],,,,,"IC50 ([1]; IGF1R kinase LCCA assay, IGF 0P): 50 to 500 nM; IC50 (IGF 3P; IGF1R kinase LCCA assay, IGF 3P): < 50 nM"
CC(C)c1cc(CNc2nc(NCCN3CCN(C)CC3)cc(Nc3cc(C(C)C)[nH]n3)n2)on1 [Example 558],50 to 500,< 50,,,
CC(C)c1cc(CNc2nc(NCCN3CCN(C)CC3)cc(Nc3cc(C4CC4)[nH]n3)n2)on1 [Example 559],500 to 5000,< 50,,,
c1ccc(-c2cc(CNc3nc(CN4CCOCC4)cc(Nc4cc(C5CC5)[nH]n4)n3)on2)cc1 [Example 561],50 to 500,50 to 500,,,
Cc1cc(Nc2cc(C3CC3)[nH]n2)nc(NCc2ccc(-c3ccc(Cl)cc3)s2)n1 [Example 562],500 to 5000,500 to 5000,,,
Cc1cc(Nc2cc(C3CC3)[nH]n2)nc(NCc2ccco2)n1 [Example 563],500 to 5000,500 to 5000,,,
Cc1cc(Nc2cc(C3CC3)n[nH]2)nc(Nc2ccc3c(c2)CN(C(=O)OC(C)(C)C)CC3)n1 [Example 565],500 to 5000,500 to 5000,,,
Cc1cc(Nc2cc(C3CC3)n[nH]2)nc(Nc2ccc(C3CCN(C(=O)OC(C)(C)C)CC3)cc2)n1 [Example 566],500 to 5000,500 to 5000,,,

SMILES,IC50 ([1]; IGF1R kinase LCCA assay) [nM],IC50 (IGF 3P; IGF1R kinase LCCA assay) [nM],IC50 [1] [nM],IC50 (IGF 3P) [nM],also measured
Cc1cc(Nc2ccccc2)nc(Nc2ccc(N3CCOCC3)cc2)n1 [Example 567],500 to 5000,500 to 5000,,,
Cc1cc(Nc2cc(C3CC3)n[nH]2)nc(Nc2ccc(CCNC(=O)OC(C)(C)C)cc2)n1 [Example 568],500 to 5000,500 to 5000,,,
Cc1cc(Nc2cc(C3CC3)n[nH]2)nc(Nc2ccc(N3CCN(C)CC3)cc2)n1 [Example 569],500 to 5000,500 to 5000,,,
Cc1cc(Nc2cc(C3CC3)n[nH]2)nc(NCc2nc(C(=O)NCCc3cccc(Cl)c3)cs2)n1 [Example 570],500 to 5000,500 to 5000,,,
Cc1cc(Nc2cc(C3CC3)n[nH]2)nc(NCc2nc(C(=O)NCCc3ccccc3F)cs2)n1 [Example 571],500 to 5000,500 to 5000,,,
Cc1cc(Nc2cc(C3CC3)[nH]n2)nc(NC(c2ccccc2)c2nc(-c3ccccc3)co2)n1 (stereo not shown) [Example 572],500 to 5000,500 to 5000,,,
"Cc1cc(Nc2cc(C3CC3)[nH]n2)nc(OCc2cc(-c3ccccc3)no2)n1 [Example 584, N-(5-cyclopropyl-1H-pyrazol-3-yl)-6-methyl-2-{[(3-phenylisoxazol-5-yl)methyl]oxy}pyrimidin-4-amine]",,,50 to 500,500 to 5000,
"CC(C)c1cc(CNc2nc(Nc3cc(C(C)C)[nH]n3)cc(OCCN3CCOCC3)n2)on1 [Example 587, N-{[3-(1-methylethyl)isoxazol-5-yl]methyl}-N^4-[5-(1-methylethyl)-1H-pyrazol-3-yl]-6-[(2-morpholin-4-ylethyl)oxy]pyrimidine-2,4-diamine]",,,500 to 5000,< 50,
"CC(C)c1cc(Nc2cc(OCCN3CCOCC3)nc(NCc3cc(-c4ccccc4)no3)n2)n[nH]1 [Example 588, N^4-[5-(1-methylethyl)-1H-pyrazol-3-yl]-6-[(2-morpholin-4-ylethyl)oxy]-N^2-[(3-phenylisoxazol-5-yl)methyl]pyrimidine-2,4-diamine]",,,50 to 500,< 50,
"CC(C)c1cc(Nc2cc(OCCN3CCCCC3)nc(NCc3cc(-c4ccccc4)no3)n2)[nH]n1 [Example 589, N^4-[3-(1-methylethyl)-1H-pyrazol-5-yl]-N^2-[(3-phenylisoxazol-5-yl)methyl]-6-[(2-piperidin-1-ylethyl)oxy]pyrimidine-2,4-diamine]",,,50 to 500,< 50,
"CC(C)c1cc(Nc2cc(N3CCN[C@@H](C)C3)nc(NCc3cc(-c4ccccc4)no3)n2)n[nH]1 [Example 591, N^4-[5-(1-methylethyl)-1H-pyrazol-3-yl]-6-[(3S)-3-methylpiperazin-1-yl]-N^2-[(3-phenylisoxazol-5-yl)methyl]pyrimidine-2,4-diamine]",,,50 to 500,< 50,
"CCN(CC)CCNc1cc(Nc2cc(C(C)C)[nH]n2)nc(NCc2cc(-c3ccccc3)no2)n1 [Example 592, N^4-[2-(diethylamino)ethyl]-N^6-[5-(1-methylethyl)-1H-pyrazol-3-yl]-N^2-[(3-phenylisoxazol-5-yl)methyl]pyrimidine-2,4,6-triamine]",,,50 to 500,< 50,
"CC(C)c1cc(CNc2nc(Nc3cc(C4CC4)[nH]n3)cc(OCCN3CCOCC3)n2)on1 [Example 594, N^4-(5-cyclopropyl-1H-pyrazol-3-yl)-N^2-{[3-(1-methylethyl)isoxazol-5-yl]methyl}-6-[(2-morpholin-4-ylethyl)oxy]pyrimidine-2,4-diamine]",,,500 to 5000,< 50,
"CC(C)c1cc(Nc2cc(OCCN3CCCCC3)nc(NCc3cc(C(C)C)no3)n2)[nH]n1 [Example 595, N^2-{[3-(1-methylethyl)isoxazol-5-yl]methyl}-N^4-[3-(1-methylethyl)-1H-pyrazol-5-yl]-6-[(2-piperidin-1-ylethyl)oxy]pyrimidine-2,4-diamine]",,,50 to 500,< 50,
"CC(C)c1cc(CNc2nc(Nc3cc(C4CC4)n[nH]3)cc(OCCN3CCCCC3)n2)on1 [Example 597, N^4-(3-cyclopropyl-1H-pyrazol-5-yl)-N^2-{[3-(1-methylethyl)isoxazol-5-yl]methyl}-6-[(2-piperidin-1-ylethyl)oxy]pyrimidine-2,4-diamine]",,,50 to 500,< 50,
"Cc1cc(CNc2nc(C)cc(Nc3cc(C4CC4)n[nH]3)n2)on1 [Example 600, N^4-(3-cyclopropyl-1H-pyrazol-5-yl)-6-methyl-N^2-[(3-methylisoxazol-5-yl)methyl]pyrimidine-2,4-diamine]",,,50 to 500,50 to 500,
"Cc1cc(CNc2nc(Nc3cc(C4CC4)n[nH]3)cc(N3CCOCC3)n2)on1 [Example 601, N^4-(3-cyclopropyl-1H-pyrazol-5-yl)-N^2-[(3-methylisoxazol-5-yl)methyl]-6-morpholin-4-ylpyrimidine-2,4-diamine]",,,50 to 500,< 50,
"Cc1cc(CNc2nc(Nc3cc(C4CC4)n[nH]3)cc(N3CCN(C)CC3)n2)on1 [Example 602, N^4-(3-cyclopropyl-1H-pyrazol-5-yl)-N^2-[(3-methylisoxazol-5-yl)methyl]-6-(4-methylpiperazin-1-yl)pyrimidine-2,4-diamine]",,,50 to 500,< 50,
"Fc1ccc(-c2cc(CNc3nc(Nc4cc(C5CC5)n[nH]4)cc(N4CCOCC4)n3)on2)cc1 [Example 604, N^4-(3-cyclopropyl-1H-pyrazol-5-yl)-N^2-{[3-(4-fluorophenyl)isoxazol-5-yl]methyl}-6-morpholin-4-ylpyrimidine-2,4-diamine]",,,50 to 500,< 50,
"CN1CCN(c2cc(Nc3cc(C4CC4)n[nH]3)nc(NCc3cc(-c4ccc(F)cc4)no3)n2)CC1 [Example 605, N^4-(3-cyclopropyl-1H-pyrazol-5-yl)-N^2-{[3-(4-fluorophenyl)isoxazol-5-yl]methyl}-6-(4-methylpiperazin-1-yl)pyrimidine-2,4-diamine]",,,50 to 500,< 50,
"Fc1ccc(-c2cc(CNc3nc(Nc4cc(C5CC5)n[nH]4)cc(OCCN4CCOCC4)n3)on2)cc1 [Example 606, N^4-(3-cyclopropyl-1H-pyrazol-5-yl)-N^2-{[3-(4-fluorophenyl)isoxazol-5-yl]methyl}-6-[(2-morpholin-4-ylethyl)oxy]pyrimidine-2,4-diamine]",,,50 to 500,< 50,
"CC(C)c1cc(Nc2cc(N3CCOCC3)nc(NCc3cc(-c4ccc(F)cc4)no3)n2)[nH]n1 [Example 607, N^2-{[3-(4-fluorophenyl)isoxazol-5-yl]methyl}-N^4-[3-(1-methylethyl)-1H-pyrazol-5-yl]-6-morpholin-4-ylpyrimidine-2,4-diamine]",,,50 to 500,< 50,
